Measured values published in patent publication US10752587B2, “Homobispiperidinyl derivatives as liver X receptor beta agonists, compositions and their use” (Merck Sharp & Dohme Corp., priority 2015, dated 2020).
pEC50: −log10 of the molar value. Read-outs that look alike come from different tables or passages of the source.

Assays:
[1] = target: T1, glutathione-S-transferase (GST) tagged LXRbeta LBD (ligand binding domain) (Homo sapiens, UniProt P55055); test: LanthaScreen TR-FRET Liver X Receptor Coactivator Assay, co-activator recruitment to LXRbeta LBD; assay type: biochemical; details: for Emax: read-out: LXR beta Activity @ max dose (%); for pEC50: read-out: LXR beta IP
T1 construct: purchased Invitrogen pv4658.pps
T1 sequence (P55055 222-460 limits assumed): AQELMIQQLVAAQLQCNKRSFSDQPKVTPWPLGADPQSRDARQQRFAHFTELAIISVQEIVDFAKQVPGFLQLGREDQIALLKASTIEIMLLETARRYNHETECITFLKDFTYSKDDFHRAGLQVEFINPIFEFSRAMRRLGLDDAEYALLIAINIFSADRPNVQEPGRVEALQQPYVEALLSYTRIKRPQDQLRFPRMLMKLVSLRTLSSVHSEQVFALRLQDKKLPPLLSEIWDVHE
Summary of the method: (§1)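 TR-FRET coactivator recruitment; compound + LBD, then fluorescein-coactivator peptide/Tb-anti-GST Ab mix; RT incubation; IP and Emax vs T0901317.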

[2] = target: T2, glutathione-S-transferase (GST) tagged LXRalpha LBD (ligand binding domain) (Homo sapiens, UniProt Q13133); test: LanthaScreen TR-FRET Liver X Receptor Coactivator Assay, co-activator recruitment to LXRalpha LBD; assay type: biochemical; details: for Emax: read-out: LXR alpha Activity @ max dose (%); for pEC50 / LXR alpha IP (nM): potency (Inflection Point, IP), co-activator recruitment to LXRalpha LBD, in relation to T0901317; for pEC50: read-out: LXR alpha IP
T2 construct: purchased Invitrogen pv4655
T2 sequence (Q13133 209-447 limits assumed): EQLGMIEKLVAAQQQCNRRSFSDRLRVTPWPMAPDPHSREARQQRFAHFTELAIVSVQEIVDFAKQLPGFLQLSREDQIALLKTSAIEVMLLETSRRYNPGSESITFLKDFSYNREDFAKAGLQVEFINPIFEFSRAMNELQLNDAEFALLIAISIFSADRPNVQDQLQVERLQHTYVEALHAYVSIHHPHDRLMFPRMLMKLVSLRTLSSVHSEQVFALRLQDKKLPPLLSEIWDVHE
Summary of the method: as §1

[3] = efficacy at max dose, in relation to reference dual agonist T0901317
[4] = potency (Inflection Point, IP), co-activator recruitment to LXRbeta LBD, in relation to T0901317

Row | Emax [1, 3] [%] | pEC50 [1, 4] | Emax [2, 3] [%] | pEC50 [2] | LXR alpha IP (nM) [2] | Compound | EC50 ([1]; LXR beta IP (nM), potency (Inflection Point, IP), co-activator recruitment to LXRbeta LBD, in relation to T0901317) [nM] | Emax [1] [%] | Emax [2] [%]
1 | 102 | 8.22 | 39 | 6.80 |  | CN(C)C(=O)c1ccc(N2CCC(CC3CCN(C(=O)[C@](O)(c4ccccc4)C(F)(F)F)CC3)CC2)nc1Cl [Example 7-63, 2-chloro-N,N-dimethyl-6-[4-({1-[(2R)-3,3,3-trifluoro-2-hydroxy-2-phenylpropanoyl]piperidin-4-yl}methyl)piperidin-1-yl]pyridine-3-carboxamide] |  |  | 
2 | 100 | 6.98 | 0 |  | NO IP | CCOc1cccc([C@@](O)(C(=O)N2CCC(CC3(C)CCN(c4ccc(C(=O)N(C)C)c(C)n4)CC3)CC2)C(F)(F)F)c1 [Example 7-14, 6-[4-({1-[(2R)-2-(3-ethoxyphenyl)-3,3,3-trifluoro-2-hydroxypropanoyl]piperidin-4-yl}methyl)-4-methyl-piperidin-1-yl]-N,N,2-trimethylpyridine-3-carboxamide] |  |  | 
3 | 93 | 7.33 | 34 | 5.53 |  | COc1cccc([C@@](O)(C(=O)N2CCC(OC3CCN(c4ccc(C(=O)N(C)C)c(OC)n4)CC3)CC2)C(F)(F)F)c1 [Example 7-154, 2-methoxy-N,N-dimethyl-6-[4-({1-[(2R)-3,3,3-trifluoro-2-hydroxy-2-(3-methoxyphenyl)propanoyl]piperidin-4-yl}oxy)piperidin-1-yl]pyridine-3-carboxamide] |  |  | 
4 | 80 | 7.72 | 24 | 6.34 |  | CN(C)C(=O)c1ncc(N2CCC(CC3CCN(C(=O)[C@](O)(c4ccccc4)C(F)(F)F)CC3)CC2)cc1Cl [Example 2-4, 3-chloro-N,N-dimethyl-5-[4-({1-[(2R)-3,3,3-trifluoro-2-hydroxy-2-phenylpropanoyl]piperidin-4-yl}methyl)piperidin-1-yl] pyridine-2-carboxamide] |  |  | 
5 | 36 | 5.89 | 0 |  | NO IP | CCOc1cccc([C@@](O)(C(=O)N2CCC(CC3CN(c4ccc(C(=O)N(C)C)c(C5CC5)n4)C3)CC2)C(F)(F)F)c1 [Example 7-17, 2-cyclopropyl-6-[3-({1-[(2R)-2-(3-ethoxyphenyl)-3,3,3-trifluoro-2-hydroxypropanoyl]piperidin-4-yl}methyl)azetidin-1-yl]-N,N-dimethylpyridine-3-carboxamide] |  |  | 
6 | 122 | 7.26 | 45 | 5.69 |  | CN(C)C(=O)c1ccc(N2CCC(CC3CCN(C(=O)[C@@](O)(c4ccccc4F)C(F)(F)F)CC3)CC2)nc1Cl [Example 7-71, 2-chloro-N,N-dimethyl-6-[4-({1-[(2S)-3,3,3-trifluoro-2-(2-fluorophenyl)-2-hydroxypropanoyl]piperidin-4-yl}methyl)piperidin-1-yl]pyridine-3-carboxamide] |  |  | 
7 | 106 | 6.94 | 21 | 5.75 |  | CN(C)C(=O)c1ccc(N2CCC(CC3CCN(C(=O)[C@](N)(c4ccccc4)C(F)(F)F)CC3)CC2)cc1Cl (stereo in doubt) [Example 2-101, 4-[4-({1-[2-amino-3,3,3-trifluoro-2-phenyl-propanoyl]piperidin-4-yl}methyl)piperidin-1-yl]-2-chloro-N,N-dimethyl-benzamide] |  |  | 
8 | 68 | 7.77 | 21 | 6.26 |  | CN(C)C(=O)c1ccc(N2CCC(CC3CCN(C(=O)[C@](O)(c4ccccc4F)C(F)(F)F)CC3)CC2)cc1Cl [Example 2-85, 2-chloro-N,N-dimethyl-4-[4-({1-[(2R)-3,3,3-trifluoro-2-(2-fluorophenyl)-2-hydroxy-propanoyl]piperidin-4-yl}methyl)piperidin-1-yl]benzamide] |  |  | 
9 | 68 | 8.40 | 26 | 7.08 |  | CN(C)C(=O)c1ccc(N2CCC(CC3CCN(C(=O)[C@](O)(c4cccc(Br)c4)C(F)(F)F)CC3)CC2)cc1Cl [Example 2-83, 4-[4-({1-[(2R)-2-(3-bromo-phenyl)-3,3,3-trifluoro-2-hydroxy-propanoyl]piperidin-4-yl}methyl)piperidin-1-yl]-2-chloro-N,N-dimethyl-benzamide] |  |  | 
10 | 145 | 7.57 | 74 | 6.43 |  | CNC(=O)c1ccc(N2CCC(CC3CCN(C(=O)[C@](O)(c4ccccc4)C(F)(F)C(F)(F)F)CC3)CC2)nc1Cl [Example 7-131, 2-chloro-N-methyl-6-[4-({1-[(2R)-3,3,4,4,4-pentafluoro-2-hydroxy-2-phenylbutanoyl]piperidin-4-yl}methyl)piperidin-1-yl]pyridine-3-carboxamide] |  |  | 
11 | 110 | 7.60 | 34 | 5.90 |  | CN(C)C(=O)c1ccc(N2CCC(CC3CCN(C(=O)[C@@](O)(c4cccc(Cl)c4)C(F)(F)F)CC3)CC2)nc1Cl [Example 7-70, 2-chloro-6-[4-({1-[(2S)-2-(3-chlorophenyl)-3,3,3-trifluoro-2-hydroxypropanoyl]piperidin-4-yl}methyl)piperidin-1-yl]-N,N-dimethyl-pyridine-3-carboxamide] |  |  | 
12 | 96 | 8.52 | 45 | 7.19 |  | CN(C)C(=O)c1ccc(N2CCC(CC3CCN(C(=O)[C@](O)(c4cc(F)cc(Cl)c4)C(F)(F)F)CC3)CC2)nc1Cl [Example 7-112, 2-chloro-6-[4-({1-[(2R)-2-(3-chloro-5-fluorophenyl)-3,3,3-trifluoro-2-hydroxypropanoyl]piperidin-4-yl}methyl)piperidin-1-yl]-N,N-dimethylpyridine-3-carboxamide] |  |  | 
13 | 126 | 6.96 | 43 | 5.97 |  | CN(C)C(=O)c1ccc(N2CCC(CC3CCN(C(=O)C(O)(Cc4ccccc4)C(F)(F)F)CC3)CC2)cc1Cl (centres unmarked) [Example 2-36, 4-(4-{[1-(2-benzyl-3,3,3-trifluoro-2-hydroxy-propanoyl)piperidin-4-yl]methyl}piperidin-1-yl)-2-chloro-N,N-dimethyl-benzamide] |  |  | 
14 | 64 | 7.16 | 20 | 6.15 |  | CN(C)C(=O)c1ccc(N2CCC(CC3CCN(C(=O)[C@](O)(c4cccc(C(F)(F)F)c4)C(F)(F)F)CC3)CC2)cc1 [Example 2-136, N,N-dimethyl-4-{4-[(1-{(2R)-3,3,3-trifluoro-2-hydroxy-2-[3-(trifluoromethyl)phenyl]propanoyl}piperidin-4-yl)methyl]piperidin-1-yl}benzamide] |  |  | 
15 | 102 | 8.05 | 31 | 6.67 |  | CN(C)C(=O)c1ccc(N2CCC(OC3CCN(C(=O)[C@](O)(c4cc(Cl)cc(Cl)c4)C(F)(F)F)CC3)CC2)cc1Cl [Example 2-46, 2-chloro-4-[4-({1-[(2R)-2-(3,5-dichloro-phenyl)-3,3,3-trifluoro-2-hydroxy-propanoyl]piperidin-4-yl}oxy)piperidin-1-yl]-N,N-dimethyl-benzamide] |  |  | 
16 | 114 | 7.11 | 16 |  | NO IP | COc1cc(F)cc([C@](O)(C(=O)N2CCC(CC3CCN(c4ccc(C(=O)N(C)C)c(Cl)n4)CC3)CC2)C(F)(F)F)c1 [Example 7-102, 2-chloro-N,N-dimethyl-6-[4-({1-[(2S)-3,3,3-trifluoro-2-(3-fluoro-5-methoxyphenyl)-2-hydroxypropanoyl]piperidin-4-yl}methyl)piperidin-1-yl]pyridine-3-carboxamide] |  |  | 

Row | Compound | Emax [1, 3] [%] | pEC50 [1, 4] | Emax [2, 3] [%] | pEC50 [2] | LXR alpha IP (nM) [2] | EC50 ([1]; LXR beta IP (nM), potency (Inflection Point, IP), co-activator recruitment to LXRbeta LBD, in relation to T0901317) [nM] | Emax [1] [%] | Emax [2] [%]
17 | CN(C)C(=O)c1ccc(N2CCC(SC3CCN(C(=O)[C@](O)(c4cccc(OC(F)(F)F)c4)C(F)(F)F)CC3)CC2)nc1Cl [Example 9-1, (R)-2-chloro-N,N-dimethyl-6-(4-(1-(3,3,3-trifluoro-2-hydroxy-2-(3-(trifluoromethoxy)phenyl)propanoyl)piperidin-4-ylthio)piperidin-1-yl)nicotinamide] |  |  |  | 6.26 |  | 13 | 60 | 21
